Laboratory results published in the OligoGym collection.
These antisense oligonucleotides have a phosphorothioate backbone; sugars and methylation of C are not fully specified.

Target: SMAD7
Conditions: ASO
Also: test concentration or dose not given here.

Row | Sequence | remaining target (mRNA or protein) (fraction of control)
1 | AAAACAGAACACAAACGA | ≥ 1
2 | AAAACCTGATGTCACCAG | ≥ 1
3 | AACCTTTGTAGTTAGAAA | 0.94
4 | AATTGGTTCTGGTTCGGC | ≥ 1
5 | ACACACAGGATGGGAGCA | ≥ 1
6 | ACCTTGTGTACCAACAGC | ≥ 1
7 | ACTCACACACACTCCTGA | 0.79
8 | AGAAGTTGGGAATCTGAA | ≥ 1
9 | AGCACCGAGTGCGTGAGC | 0.72
10 | AGCCTCTTGACTTCCGAG | ≥ 1
11 | AGGAGGCGAGGAGAAAAG | ≥ 1
12 | AGGCGGCCGGGCAGCAGG | ≥ 1
13 | AGTCTGCAGTTGGTTTGA | ≥ 1
14 | AGTTCGCAGAGTCGGCTA | 0.68
15 | ATTCAGCTAGGTGATAAC | ≥ 1
16 | ATTTCCAATGAGAATGCT | ≥ 1
17 | CAATCTTGTGTTTATCTT | ≥ 1
18 | CCCTCCTCCTCGTCCTCG | 0.72
19 | CGAACATGACCTCCGCAC | 0.52
20 | CGACAGCAGCAGCAGCAG | 0.82
21 | CTCCGGCTGCCCCACCCC | 0.52
22 | CTGATCTGCACGGTAAAG | ≥ 1
23 | CTGCCCCTTCTTCCAAAA | 0.68
24 | GAGATCCAGGAGCAGATG | 0.78
25 | GATGGTACCTTGGGTTAT | 0.94
26 | GCCGATTTTGCTCCGCAC | 0.78
27 | GCTCAGCTCACGCTCTGT | 0.62
28 | GCTGTCCGTCGCCCCTTC | 0.87

Target: RHOB
Conditions: ASO

Row | Sequence | remaining target (mRNA or protein) (fraction of control)
29 | CCGTCCACCTCAATGTCG | ≥ 1
30 | CCGTCGCCCACCACCACC | ≥ 1
31 | CCTTACTGAACACGATCA | ≥ 1
32 | CGAAGACCTCGCGCACGC | ≥ 1
33 | CGAGGTAGTCGTAGGCTT | 0.61
34 | CGGACATGCTCGTCGCTG | ≥ 1
35 | CGGGCCAGCTCTGTGCGG | 0.62
36 | CGTGGCCGTCTCGAAGAC | ≥ 1
37 | CTCGAAGACCTCGCGCAC | ≥ 1
38 | CTCGTCCTTACTGAACAC | 0.99
39 | CTCTGTGCGGACATGCTC | 0.61
40 | GACATGCTCGTCGCTGCG | ≥ 1
41 | GAGTCCGGGCTGTCCACC | ≥ 1
42 | GATGCAGCCGTTCTGGGA | ≥ 1
43 | GCACGTCTTGCCACACGC | ≥ 1
44 | GCCGTCTCGAAGACCTCG | ≥ 1
45 | GCCGTTCTGGGAGCCGTA | ≥ 1
46 | GGGATGTTCTCCAGCGAG | 0.67
47 | GTAGTCGTAGGCTTGGAT | 0.71
48 | GTCCTTACTGAACACGAT | 0.95
49 | GTCTTGGCAGAGCACTCG | 0.8
50 | GTTCCTGCTTCATGCGGG | 0.73
51 | GTTCTGGGAGCCGTAGCG | 0.64
52 | GTTGATGCAGCCGTTCTG | 0.93
53 | TCGGCCACATAGTTCTCG | 0.87
54 | TGCGGGCCAGCTCTGTGC | 0.69
55 | TGTGCGGACATGCTCGTC | ≥ 1
56 | TTACTGAACACGATCAGC | ≥ 1
